From PubChem BioAssay (NCI)
Several values for one entry are separate records, joined by “and”; a condition that tells them apart may be missing. Equal entries are not always repeated.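 Where inhibition never reached the appropriate level, the endpoint shown equals the highest concentration tested. Otherwise, values were interpolated linearly from a five-concentration, 48-hour dose response in 96-well plates. The concentration for 50% growth inhibition is given as GI50. Definition used: TGI = concentration required for complete inhibition of growth.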

What was measured:
Assay in all cases: NCI-60 cell line screen, 48 h
UACC-257 melanoma = test system: UACC-257 melanoma
A549 NSCLC = test system: A549 NSCLC
DU-145 prostate = test system: DU-145 prostate
HOP-92 NSCLC = test system: HOP-92 NSCLC
NCI-H460 lung = test system: NCI-H460 lung
ACHN renal = test system: ACHN renal
UO-31 renal = test system: UO-31 renal
MDA-MB-231 breast = test system: MDA-MB-231 breast
SW-620 colon = test system: SW-620 colon
786-0 renal = test system: 786-0 renal
HOP-62 NSCLC = test system: HOP-62 NSCLC
SK-MEL-28 melanoma = test system: SK-MEL-28 melanoma
TK-10 renal = test system: TK-10 renal
SF-268 CNS = test system: SF-268 CNS
SF-539 CNS = test system: SF-539 CNS
A498 renal = test system: A498 renal
PC-3 prostate = test system: PC-3 prostate
OVCAR-3 ovarian = test system: OVCAR-3 ovarian
SK-OV-3 ovarian = test system: SK-OV-3 ovarian
NCI-H226 lung = test system: NCI-H226 lung
CCRF-CEM leukemia = test system: CCRF-CEM leukemia
SNB-75 CNS = test system: SNB-75 CNS
RXF 393 renal = test system: RXF 393 renal
BT-549 breast = test system: BT-549 breast
SK-MEL-2 melanoma = test system: SK-MEL-2 melanoma
UACC-62 melanoma = test system: UACC-62 melanoma
SNB-19 CNS = test system: SNB-19 CNS
NCI-H522 lung = test system: NCI-H522 lung
HL-60(TB) leukemia = test system: HL-60(TB) leukemia
NCI/ADR-RES ovarian = test system: NCI/ADR-RES ovarian
IGROV1 ovarian = test system: IGROV1 ovarian
EKVX NSCLC = test system: EKVX NSCLC
HS 578T breast = test system: HS 578T breast
OVCAR-5 ovarian = test system: OVCAR-5 ovarian
OVCAR-8 ovarian = test system: OVCAR-8 ovarian
HCT-116 colon = test system: HCT-116 colon
MOLT-4 leukemia = test system: MOLT-4 leukemia
HCC-2998 colon = test system: HCC-2998 colon
COLO 205 colon = test system: COLO 205 colon
HT29 colon = test system: HT29 colon
LOX IMVI melanoma = test system: LOX IMVI melanoma
CAKI-1 renal = test system: CAKI-1 renal
SN12C renal = test system: SN12C renal
HCT-15 colon = test system: HCT-15 colon
K-562 leukemia = test system: K-562 leukemia
OVCAR-4 ovarian = test system: OVCAR-4 ovarian
U251 CNS = test system: U251 CNS
MALME-3M melanoma = test system: MALME-3M melanoma
M14 melanoma = test system: M14 melanoma
MDA-MB-435 = test system: MDA-MB-435
NCI-H23 lung = test system: NCI-H23 lung
RPMI-8226 leukemia = test system: RPMI-8226 leukemia
SF-295 CNS = test system: SF-295 CNS
SR leukemia = test system: SR leukemia
SK-MEL-5 melanoma = test system: SK-MEL-5 melanoma

Fc1ccc2c(c1)c(-c1nc(-c3c[nH]c4ncccc34)cs1)cn2CCCCN1CCCCC1
GI50 (UACC-257 melanoma): 1760 nM | TGI (UACC-257 melanoma): 3330 nM | GI50 (A549 NSCLC): 1770 nM | TGI (A549 NSCLC): 3310 nM | GI50 (DU-145 prostate): 1760 nM | TGI (DU-145 prostate): 3210 nM | GI50 (HOP-92 NSCLC): 1160 nM | TGI (HOP-92 NSCLC): 2480 nM | GI50 (NCI-H460 lung): 1810 nM | TGI (NCI-H460 lung): 3470 nM | GI50 (ACHN renal): 1670 nM | TGI (ACHN renal): 3100 nM | GI50 (UO-31 renal): 1230 nM | TGI (UO-31 renal): 2570 nM | GI50 (MDA-MB-231 breast): 1610 nM | TGI (MDA-MB-231 breast): 3040 nM | GI50 (SW-620 colon): 1740 nM | TGI (SW-620 colon): 3240 nM | GI50 (786-0 renal): 1620 nM | TGI (786-0 renal): 3070 nM | GI50 (HOP-62 NSCLC): 1530 nM | TGI (HOP-62 NSCLC): 3010 nM | GI50 (SK-MEL-28 melanoma): 1780 nM | TGI (SK-MEL-28 melanoma): 3320 nM | GI50 (TK-10 renal): 2300 nM | TGI (TK-10 renal): 3890 nM | GI50 (SF-268 CNS): 1630 nM | TGI (SF-268 CNS): 3220 nM | GI50 (SF-539 CNS): 1610 nM | TGI (SF-539 CNS): 3020 nM | GI50 (A498 renal): 1510 nM | TGI (A498 renal): 3050 nM | GI50 (PC-3 prostate): 1490 nM | TGI (PC-3 prostate): 2890 nM | GI50 (OVCAR-3 ovarian): 1750 nM | TGI (OVCAR-3 ovarian): 3200 nM | GI50 (SK-OV-3 ovarian): 1720 nM | TGI (SK-OV-3 ovarian): 3140 nM

C[n+]1c2cc(N)ccc2cc2ccc(N)cc21
GI50 (NCI-H226 lung): 882 nM [middle of 4 runs] | TGI (NCI-H226 lung): 3.98 µM [middle of 4 runs] | GI50 (CCRF-CEM leukemia): 2.1 µM [middle of 4 runs] | GI50 (SNB-75 CNS): 1.55 µM [middle of 4 runs] | TGI (SNB-75 CNS): 4.05 µM [middle of 4 runs] | TGI (RXF 393 renal): 3.59 µM [middle of 4 runs] | GI50 (BT-549 breast): 1.61 µM [middle of 4 runs] | TGI (BT-549 breast): 4.05 µM [middle of 4 runs] | GI50 (UACC-257 melanoma): 1.79 µM [middle of 4 runs] | TGI (UACC-257 melanoma): 3.91 µM [middle of 4 runs] | GI50 (SK-MEL-2 melanoma): 1.47 µM [middle of 4 runs] | TGI (SK-MEL-2 melanoma): 5 µM [middle of 4 runs] | GI50 (UACC-62 melanoma): 1.26 µM [middle of 4 runs] | TGI (UACC-62 melanoma): 2.86 µM [middle of 4 runs] | GI50 (SNB-19 CNS): 933 nM [middle of 4 runs] | TGI (SNB-19 CNS): 5.01 µM [middle of 4 runs] | GI50 (NCI-H522 lung): 917 nM [middle of 4 runs] | TGI (NCI-H522 lung): 3.68 µM [middle of 4 runs] | GI50 (A549 NSCLC): 256 nM [middle of 4 runs] | GI50 (HL-60(TB) leukemia): 2.83 µM [middle of 4 runs] | TGI (HL-60(TB) leukemia): 9.76 µM [middle of 4 runs] | GI50 (NCI/ADR-RES ovarian): 2.72 µM [middle of 4 runs] | GI50 (DU-145 prostate): 1.36 µM [middle of 4 runs] | TGI (DU-145 prostate): 5.57 µM [middle of 4 runs] | GI50 (IGROV1 ovarian): 1.46 µM [middle of 4 runs] | GI50 (EKVX NSCLC): 263 nM and 831 nM and 261 nM | TGI (EKVX NSCLC): 2.31 µM [middle of 4 runs] | GI50 (HS 578T breast): 1.54 µM [middle of 4 runs] | TGI (HS 578T breast): 6.31 µM [middle of 4 runs] | TGI (HOP-92 NSCLC): 5.78 µM [middle of 4 runs] | GI50 (OVCAR-5 ovarian): 1.1 µM [middle of 4 runs] | GI50 (OVCAR-8 ovarian): 565 nM [middle of 4 runs] | GI50 (HCT-116 colon): 622 nM [middle of 4 runs] | TGI (HCT-116 colon): 5550 nM and 11100 nM and 5510 nM | GI50 (NCI-H460 lung): 460 nM [middle of 4 runs] | GI50 (ACHN renal): 1 µM [middle of 4 runs] | GI50 (MOLT-4 leukemia): 547 nM [middle of 4 runs] | GI50 (HCC-2998 colon): 925 nM [middle of 4 runs] | TGI (HCC-2998 colon): 3.43 µM [middle of 4 runs] | GI50 (COLO 205 colon): 441 nM [middle of 4 runs] | GI50 (MDA-MB-231 breast): 1.41 µM [middle of 4 runs] | TGI (MDA-MB-231 breast): 9.68 µM [middle of 4 runs] | GI50 (HT29 colon): 1 µM [middle of 4 runs] | TGI (HT29 colon): 2720 nM and 13300 nM and 3150 nM | GI50 (LOX IMVI melanoma): 956 nM and 2260 nM and 1820 nM | TGI (LOX IMVI melanoma): 5.52 µM [middle of 4 runs] | GI50 (CAKI-1 renal): 1.04 µM [middle of 4 runs] | TGI (CAKI-1 renal): 9.03 µM [middle of 4 runs] | GI50 (SW-620 colon): 198 nM [middle of 4 runs] | GI50 (786-0 renal): 1.33 µM [middle of 4 runs] | GI50 (SN12C renal): 701 nM [middle of 4 runs] | TGI (SN12C renal): 4.03 µM [middle of 4 runs] | TGI (HOP-62 NSCLC): 2450 nM and 10700 nM and 3700 nM | GI50 (SK-MEL-28 melanoma): 1.96 µM [middle of 4 runs] | TGI (SK-MEL-28 melanoma): 4.78 µM [middle of 4 runs] | GI50 (HCT-15 colon): 2.41 µM [middle of 4 runs] | TGI (HCT-15 colon): 15.2 µM [middle of 4 runs] | GI50 (K-562 leukemia): 1.18 µM [middle of 4 runs] | GI50 (OVCAR-4 ovarian): 1.34 µM [middle of 4 runs] | GI50 (U251 CNS): 733 nM [middle of 4 runs] | TGI (U251 CNS): 4.22 µM [middle of 4 runs] | GI50 (MALME-3M melanoma): 763 nM [middle of 4 runs] | TGI (MALME-3M melanoma): 2.86 µM [middle of 4 runs] | GI50 (M14 melanoma): 1.68 µM [middle of 4 runs] | TGI (M14 melanoma): 3.75 µM [middle of 4 runs] | GI50 (TK-10 renal): 1.43 µM [middle of 4 runs] | TGI (TK-10 renal): 9.33 µM [middle of 4 runs] | GI50 (MDA-MB-435): 1.62 µM [middle of 4 runs] | GI50 (SF-268 CNS): 572 nM [middle of 4 runs] | TGI (SF-268 CNS): 3.47 µM [middle of 4 runs] | GI50 (SF-539 CNS): 1.33 µM [middle of 4 runs] | TGI (SF-539 CNS): 3.69 µM [middle of 4 runs] | GI50 (A498 renal): 162 nM and 152 nM and 71.9 nM | TGI (A498 renal): 795 nM and 599 nM and 492 nM | GI50 (PC-3 prostate): 696 nM [middle of 4 runs] | TGI (PC-3 prostate): 5.8 µM [middle of 4 runs] | GI50 (OVCAR-3 ovarian): 1.58 µM [middle of 4 runs] | TGI (OVCAR-3 ovarian): 7.45 µM [middle of 4 runs] | GI50 (NCI-H23 lung): 1.27 µM [middle of 4 runs] | TGI (NCI-H23 lung): 4.49 µM [middle of 4 runs] | GI50 (RPMI-8226 leukemia): 1.89 µM [middle of 4 runs] | TGI (SF-295 CNS): 5.63 µM [middle of 4 runs] | GI50 (SR leukemia): 687 nM [middle of 4 runs] | GI50 (SK-MEL-5 melanoma): 1.23 µM [middle of 4 runs] | TGI (SK-MEL-5 melanoma): 2.57 µM [middle of 4 runs]
